Converted amounts (≈) assume the structure as drawn. “And” between values parts separate entries of the source, which are not always exact repeats. Equal entries are not always repeated. Values belong to the compound of their own block, whether it stands above or below them.
How the values were obtained:
Assay in all cases: ≥ marks a high value that may be exact or a test limit, other limits are often not marked, values filed in µg/mL are converted to µM
[1] = system: Salmonella enterica subsp. enterica serovar Enteritidis CVCC 3377
[2] = system: Staphylococcus aureus ATCC 25923
[3] = system: Listeria ivanovii ATCC 19119
[4] = system: Salmonella enterica subsp. enterica serovar Pullorum CVCC 1789
[5] = system: Salmonella enterica subsp. enterica serovar Pullorum CVCC 1802
[6] = system: Candida albicans CGMCC 2.2411
[7] = system: Staphylococcus aureus ATCC 43300
[8] = system: Pseudomonas aeruginosa CICC 21630
[9] = system: Streptococcus suis CVCC 606
[10] = system: Escherichia coli O157:H7 CICC 21530
[11] = system: Salmonella enterica subsp. enterica serovar Choleraesuis CVCC 503
[12] = system: Bacillus subtilis ATCC 6633
[13] = system: Pseudomonas aeruginosa CICC 10419
[14] = system: Escherichia coli CVCC 195
[15] = system: Escherichia coli CVCC 1515
[16] = system: Salmonella enterica subsp. enterica serovar Typhimurium ATCC 14028
[17] = system: Enterococcus faecium CMCC 1.2136
[18] = system: Serratia marcescens ATCC 8100
Escherichia coli ML-35 = system: Escherichia coli ML-35
Bacillus megaterium Bm11 = system: Bacillus megaterium Bm11
[19] = system: Staphylococcus epidermidis ATCC 12228
Escherichia coli D21 = system: Escherichia coli D21
[20] = system: Pseudomonas aeruginosa ATCC 27853
[21] = system: Listeria monocytogenes EGD
[22] = system: Escherichia coli ATCC 25922
[23] = system: Listeria monocytogenes ATCC 7644
[24] = system: Staphylococcus epidermidis SAM 0020
[25] = system: Candida albicans ATCC 18804
[26] = system: Staphylococcus aureus IAM 1098
[27] = system: Staphylococcus aureus ATCC 29213
[28] = system: Pseudomonas aeruginosa DFU3
[29] = system: Mycobacterium tuberculosis
[30] = system: Escherichia coli ATCC 11775
Shigella flexneri = system: Shigella flexneri
Streptococcus agalactiae = system: Streptococcus agalactiae
[31] = system: Bacillus subtilis ATCC 6051
[32] = system: Mycobacterium tuberculosis H37Rv
[33] = system: Enterococcus faecalis ATCC 19433
[34] = system: Salmonella enterica subsp. enterica serovar Typhi ATCC 6399
[35] = system: Pseudomonas aeruginosa ATCC 10145
[36] = system: Candida albicans JLC 30364
Staphylococcus aureus = system: Staphylococcus aureus
Streptococcus sanguinis = system: Streptococcus sanguinis

SMILES: CC(C)[C@H](NC(=O)CNC(=O)[C@H](CC(N)=O)NC(=O)[C@H](CCCN=C(N)N)NC(=O)[C@H](Cc1ccc(O)cc1)NC(=O)[C@@H](NC(=O)[C@@H](NC(=O)[C@H](CC(N)=O)NC(=O)[C@H](Cc1c[nH]c2ccccc12)NC(=O)[C@H](Cc1ccccc1)NC(=O)CN)C(C)C)C(C)C)C(=O)N[C@@H](CCCN=C(N)N)C(=O)N[C@H](C(=O)N[C@@H](Cc1cnc[nH]1)C(=O)N[C@@H](CCCN=C(N)N)C(=O)N[C@@H](CCCN=C(N)N)C(=O)N[C@@H](CC(N)=O)C(=O)O)C(C)C [GFWNVVYRNGVRVHRRN]
- MIC [1]: 1.88 µM (≈ 4 µg/mL)
- MIC [2]: 0.939 µM (≈ 2 µg/mL)
- MIC [3]: ≥ 60.1 µM
- MIC [4]: ≥ 60.1 µM
- MIC [5]: ≥ 60.1 µM
- MIC [6]: ≥ 60.1 µM
- MIC [7]: > 60.1 µM
- MIC [8]: ≥ 60.1 µM
- MIC [9]: ≥ 60.1 µM
- MIC [10]: 30.1 µM (≈ 64 µg/mL)
- MIC [11]: ≥ 60.1 µM
- MIC [12]: 30.1 µM (≈ 64 µg/mL)
- MIC [13]: ≥ 60.1 µM
- MIC [14]: 30.1 µM (≈ 64 µg/mL)
- MIC [15]: ≥ 60.1 µM
- MIC [16]: 60.1 µM (≈ 128 µg/mL)
- MIC [17]: 30.1 µM (≈ 64 µg/mL)

SMILES: NC(N)=NCCC[C@H](NC(=O)[C@@H](N)CCCN=C(N)N)C(=O)N[C@@H](CCCN=C(N)N)C(=O)N1CCC[C@H]1C(=O)N[C@@H](CCCN=C(N)N)C(=O)N1CCC[C@H]1C(=O)N1CCC[C@H]1C(=O)N[C@@H](Cc1ccc(O)cc1)C(=O)N[C@@H](Cc1c[nH]c2ccccc12)C(=O)N1CCC[C@H]1C(=O)N[C@@H](CCCN=C(N)N)C(=O)N1CCC[C@H]1C(=O)N[C@@H](CCCN=C(N)N)C(=O)N1CCC[C@H]1C(=O)N1CCC[C@H]1C(=O)O [RRRPRPPYWPRPRPP]
- MIC [18]: 8 µM (≈ 15.9 µg/mL)
- MIC (Escherichia coli ML-35): 4 µM (≈ 7.94 µg/mL)
- MIC (Bacillus megaterium Bm11): 16 µM (≈ 31.7 µg/mL)
- MIC [19]: > 64 µM
- MIC (Escherichia coli D21): 2 µM (≈ 3.97 µg/mL)
- MIC [16]: 16 µM (≈ 31.7 µg/mL)

SMILES: CC(=O)N[C@@H](Cc1ccccc1)C(=O)N[C@@H](CCCCN)C(=O)N[C@@H](CCCCN)C(=O)N[C@@H](CC(C)C)C(=O)N[C@@H](CCCCN)C(=O)N[C@@H](CCCCN)C(=O)N[C@@H](CC(C)C)C(=O)N[C@@H](Cc1ccccc1)C(=O)N[C@@H](CO)C(=O)N[C@@H](CCCCN)C(=O)N[C@@H](CC(C)C)C(=O)N[C@@H](Cc1c[nH]c2ccccc12)C(=O)N[C@@H](CC(N)=O)C(=O)N[C@@H](Cc1c[nH]c2ccccc12)C(=O)N[C@@H](CCCCN)C(N)=O [FKKLKKLFSKLWNWK]
- MIC [12]: 1.6 µM and 4 µM
- MIC [36]: ≥ 32 µM

SMILES: NC(=O)[C@H](Cc1ccccc1)NC(=O)[C@H](Cc1ccccc1)NC(=O)[C@@H](N)Cc1ccccc1 [FFF]
- MIC (Staphylococcus aureus): > 1090 µM
- MIC (Streptococcus sanguinis): ≥ 1090 µM

Continued, values first:

- MIC [20]: 128 µM (≈ 289 µg/mL)
- MIC [2]: 128 µM (≈ 289 µg/mL)
- MIC [21]: ≥ 128 µM
- MIC [22]: 128 µM (≈ 289 µg/mL)
SMILES: CC[C@H](C)[C@H](NC(=O)[C@H](C)NC(=O)[C@H](CCCN=C(N)N)NC(=O)[C@H](CCCCN)NC(=O)[C@H](C)NC(=O)[C@H](CCC(N)=O)NC(=O)[C@H](CC(C)C)NC(=O)[C@H](CCCCN)NC(=O)[C@H](Cc1ccccc1)NC(=O)[C@H](CC(C)C)NC(=O)[C@H](CCCCN)NC(=O)[C@H](Cc1ccccc1)NC(=O)[C@@H](NC(=O)[C@@H](NC(=O)[C@H](CCCCN)NC(=O)[C@H](C)NC(=O)[C@H](C)NC(=O)[C@@H](N)CCCCN)[C@@H](C)O)C(C)C)C(=O)N[C@@H](CCC(=O)O)C(=O)N[C@@H](C)C(N)=O [KAAKTVFKLFKLQAKRAIEA]

- MIC [23]: 18.8 µM (≈ 49.1 µg/mL)
- MIC [24]: 4.8 µM (≈ 12.5 µg/mL)
- MIC [25]: 19.1 µM (≈ 49.9 µg/mL)
- MIC [26]: 2.4 µM (≈ 6.27 µg/mL)
- MIC [27]: 6.2 µM and > 3.1 µM
- MIC [28]: 18.8 µM and 25 µM
- MIC [29]: ≥ 33.1 µM
- MIC [30]: 19.1 µM (≈ 49.9 µg/mL)
- MIC (Shigella flexneri): ≥ 37.5 µM
- MIC [12]: ≥ 37.5 µM
- MIC (Streptococcus agalactiae): 18.8 µM (≈ 49.1 µg/mL)
- MIC [31]: 4.8 µM (≈ 12.5 µg/mL)
- MIC [32]: 22.1 µM (≈ 57.7 µg/mL)
- MIC [33]: 2.4 µM (≈ 6.27 µg/mL)
- MIC [34]: ≥ 37.5 µM
- MIC [35]: ≥ 38.2 µM
SMILES: CC[C@H](C)[C@H](NC(=O)[C@H](CC(C)C)NC(=O)[C@H](CCCCN)NC(=O)[C@H](CC(C)C)NC(=O)[C@H](C)NC(=O)CNC(=O)[C@H](CCCCN)NC(=O)[C@H](C)NC(=O)[C@H](CC(C)C)NC(=O)[C@H](C)NC(=O)CNC(=O)[C@H](Cc1c[nH]c2ccccc12)NC(=O)[C@@H](N)Cc1ccccc1)C(=O)N1CCC[C@H]1C(=O)N[C@@H](CO)C(=O)N[C@@H](CC(C)C)C(=O)N[C@@H](Cc1ccccc1)C(=O)N[C@@H](CO)C(=O)N[C@@H](CO)C(=O)N[C@@H](Cc1ccccc1)C(=O)N[C@@H](CO)C(=O)N[C@@H](CCCCN)C(=O)N[C@@H](CCCCN)C(=O)N[C@@H](CC(=O)O)C(=O)O [FWGALAKGALKLIPSLFSSFSKKD]

Reference: DBAASP
